The values below come from patent US20020025918A1, “Methods of using helical peptides in plants” (priority 1987, published 2002).

Test [1] has as its system E. coli. In words: MBC and MIC susceptibility test. It counts as cell-based. As to conditions: for MBC: Table III.
Test [2] concerns P. aeruginosa. In words: MBC and MIC susceptibility test. As to conditions: for MBC: Table III, P. aeuriginosa (−). In kind it is cell-based.
In test [3] the test system is S. aureus. In words: MBC and MIC susceptibility test. It counts as cell-based.
Test [4] has as its system EL-4 lymphoma cells. In words: EL-4 cell killing, trypan blue exclusion. As to conditions: one hour, 37° C.
Test [5] has as its system S. auerus. In words: Synergy of lytic peptide with antibiotics. The note with it: Manitou-1 0 μM.
Test [6] deals with E. coli. In words: Synergy of lytic peptide with antibiotics. As to conditions: Manitou-1 0 μM.

SMILES strings stand for the structures. ≈ marks a conversion by molar mass, not a printed value. Residues, ends and D or L forms follow the SMILES beside them.

For `CC(C)C[C@H](NC(=O)[C@H](CCCCN)NC(=O)[C@H](C)NC(=O)[C@H](CC(C)C)NC(=O)[C@H](CCCCN)NC(=O)[C@H](CCCCN)NC(=O)[C@H](C)NC(=O)[C@H](CC(C)C)NC(=O)[C@H](CCCCN)NC(=O)[C@H](C)NC(=O)[C@H](CC(C)C)NC(=O)[C@H](CCCCN)NC(=O)[C@H](CCCCN)NC(=O)[C@@H](N)CC(C)C)C(=O)N[C@@H](C)C(=O)N[C@@H](CCCCN)C(=O)N[C@@H](CCCCN)C(=O)N[C@@H](CC(C)C)C(=O)N[C@@H](C)C(=O)N[C@@H](CCCCN)C(=O)N[C@@H](CCCCN)C(N)=O` [Anubis-8], the “antibacterial result of treatment (Table I; MBC)” value in test [1] amounted to 16 µM; in test [2] (P. aeruginosa (−)), 16 µM; in test [3] (S. auerus (+)) it was 8 µM.
Take `CC(C)C[C@H](NC(=O)[C@H](C)NC(=O)[C@H](CCCCN)NC(=O)[C@H](CCCCN)NC(=O)[C@H](CC(C)C)NC(=O)[C@H](C)NC(=O)[C@H](CCCCN)NC(=O)[C@H](CCCCN)NC(=O)[C@H](CC(C)C)NC(=O)[C@H](CCCCN)NC(=O)[C@H](CCCCN)NC(=O)[C@H](CC(C)C)NC(=O)[C@H](C)NC(=O)[C@H](CCCCN)NC(=O)[C@H](CCCCN)NC(=O)[C@H](CC(C)C)NC(=O)[C@H](C)NC(=O)[C@H](CCCCN)NC(=O)[C@H](CC(C)C)NC(=O)[C@H](C)NC(=O)[C@H](CC(C)C)NC(=O)[C@H](C)NC(=O)[C@@H](N)Cc1ccccc1)C(N)=O` [Hecate-1] (H-FALALKALKKALKKLKKALKKAL-NH2): the MBC (usually the lowest tested concentration that kills the bacteria rather than only halting them) in test [1] came out at 4.0 µM (≈ 10.1 µg/mL); in test [2] it was 10.0 µM (≈ 25.4 µg/mL).
Regarding `CC[C@H](C)[C@H](NC(=O)CNC(=O)[C@H](CC(N)=O)NC(=O)[C@H](CCCNC(=N)N)NC(=O)[C@@H](NC(=O)[C@H](CC(N)=O)NC(=O)[C@H](CCCNC(=N)N)NC(=O)CNC(=O)[C@@H](NC(=O)[C@H](CCCCN)NC(=O)[C@H](CCC(=O)O)NC(=O)[C@@H](NC(=O)[C@H](CCCCN)NC(=O)[C@H](CCCCN)NC(=O)[C@H](Cc1ccccc1)NC(=O)[C@@H](NC(=O)[C@H](CCCCN)NC(=O)[C@H](Cc1c[nH]c2ccccc12)NC(=O)[C@H](CCCCN)NC(=O)[C@@H]1CCCN1C(=O)[C@@H](N)CCSC)C(C)C)[C@@H](C)CC)C(C)C)[C@@H](C)CC)C(=O)N[C@H](C(=O)N[C@@H](CCCCN)C(=O)N[C@@H](C)C(=O)NCC(=O)N1CCC[C@H]1C(=O)N[C@@H](C)C(=O)N[C@H](C(=O)N[C@@H](C)C(=O)N[C@H](C(=O)N[C@@H](CC(C)C)C(=O)NCC(=O)N[C@@H](CCC(=O)O)C(=O)N[C@@H](C)C(=O)N[C@@H](CCCCN)C(=O)N[C@@H](C)C(=O)N[C@@H](CC(C)C)C(=O)NCC(N)=O)C(C)C)[C@@H](C)CC)C(C)C` [SB-37] (H-MPKWKVFKKIEKVGRNIRNGIVKAGPAIAVLGEAKALG-NH2), the MBC in test [1] came to 2.0 µM (≈ 8.18 µg/mL); in test [2], 3.5 µM (≈ 14.3 µg/mL); in test [3] (Table III, S. aureus (+)), 64 µM (≈ 262 µg/mL).
For `CC[C@H](C)[C@H](NC(=O)CNC(=O)[C@H](CCC(N)=O)NC(=O)[C@H](CCCCN)NC(=O)[C@@H](NC(=O)[C@H](CCC(N)=O)NC(=O)[C@H](CCCCN)NC(=O)CNC(=O)[C@@H](NC(=O)[C@H](CCCNC(=N)N)NC(=O)[C@H](CC(=O)O)NC(=O)[C@@H](NC(=O)[C@H](CCCNC(=N)N)NC(=O)[C@H](CCCNC(=N)N)NC(=O)[C@H](Cc1ccccc1)NC(=O)[C@H](CC(C)C)NC(=O)[C@H](CCCNC(=N)N)NC(=O)[C@H](Cc1c[nH]c2ccccc12)NC(=O)[C@H](CCCNC(=N)N)NC(=O)[C@@H]1CCCN1C(=O)[C@@H](N)CCSC)[C@@H](C)CC)C(C)C)[C@@H](C)CC)C(=O)N[C@@H](CC(C)C)C(=O)N[C@@H](CCCNC(=N)N)C(=O)N[C@@H](C)C(=O)NCC(=O)N1CCC[C@H]1C(=O)N[C@@H](C)C(=O)N[C@H](C(=O)N[C@@H](C)C(=O)N[C@@H](CC(C)C)C(=O)N[C@H](C(=O)NCC(=O)N[C@@H](CC(=O)O)C(=O)N[C@@H](C)C(=O)N[C@@H](CCCNC(=N)N)C(=O)N[C@@H](C)C(=O)N[C@H](C(=O)NCC(N)=O)C(C)C)C(C)C)[C@@H](C)CC` [Shiva-1] (H-MPRWRLFRRIDRVGKQIKQGILRAGPAIALVGDARAVG-NH2; N-terminus and C-terminus assumed), the “% EL-4 Cells Killed” value was 2% in test [4] (10 μM peptide), 18% in test [4] (25 μM peptide), 42% in test [4] (50 μM peptide) and 87% in test [4] (100 μM peptide).
For `CC(C)C[C@H](NC(=O)[C@H](C)NC(=O)[C@H](CC(C)C)NC(=O)[C@H](C)NC(=O)[C@H](CC(C)C)NC(=O)[C@H](CCCCN)NC(=O)[C@H](C)NC(=O)[C@H](CC(C)C)NC(=O)[C@H](CCCCN)NC(=O)[C@H](CCCCN)NC(=O)[C@H](C)NC(=O)[C@H](CC(C)C)NC(=O)[C@H](CCCCN)NC(=O)[C@H](CCCCN)NC(=O)[C@H](CC(C)C)NC(=O)[C@H](CCCCN)NC(=O)[C@H](CCCCN)NC(=O)[C@H](C)NC(=O)[C@H](CC(C)C)NC(=O)[C@H](CCCCN)NC(=O)[C@H](CCCCN)NC(=O)[C@H](C)NC(=O)[C@@H](N)Cc1ccccc1)C(N)=O` [Shiva-10], the MBC in test [1] was 1.0 µM (≈ 2.54 µg/mL); in test [2], 2.0 µM (≈ 5.07 µg/mL).
With `[H]/N=C(/N)N[C@H]1[C@H](O)[C@@H](O)[C@H](O[C@@H]2O[C@@H](C)[C@](O)(C=O)[C@H]2O[C@@H]2O[C@@H](CO)[C@H](O)[C@@H](O)[C@@H]2NC)[C@@H](N/C(N)=N\[H])[C@@H]1O` [Streptomycin, reference compound], the results for the “% Cell Death In S. auerus” value in test [5] (antibiotic 0.5 μM alone) and in test [5] (antibiotic 5.0 μM alone) were 0% and 87%, respectively. The figures for the “% Cell Death In E. coli” value in test [6] (antibiotic 0.5 μM alone) and in test [6] (antibiotic 5.0 μM alone) were 0% and 87%, respectively.
For the molecule `CN(C)[C@@H]1C(O)=C(C(N)=O)C(=O)[C@@]2(O)C(O)=C3C(=O)c4c(O)cccc4[C@@](C)(O)[C@H]3C[C@@H]12` [Tetracycline, reference compound], the “% Cell Death In S. auerus” value in test [5] (antibiotic 0.5 μM alone) stood at 0%; in test [5] (antibiotic 5.0 μM alone), 35%. In addition, the results for the “% Cell Death In E. coli” value in test [6] (antibiotic 0.5 μM alone) and in test [6] (antibiotic 5.0 μM alone) were 0% and 58%, respectively.
